# From US8362031B2, “Lonidamine analogues and treatment of polycystic kidney disease” (University of Kansas, priority 2004, dated 2013)
# “Also recorded” adds a separate entry of the source.
# How the values were obtained:
# rats = experiment: Toxicology: organs sectioned and examined after dosing; type: in vivo; settings: for Toxicology: liver, lung, pancreas, spleen, heart and kidney (histology): two animals examined, findings per animal; for Kidney (histology) / Liver and Pancreas (histology): single injection, sacrificed five days after injection, per animal
# Procedure: In at least two of the animals in each group, the pancreas, right kidney and part of the liver, heart, spleen, and lung were removed and evaluated for toxic effects.
# The toxicology of animals receiving some of the compounds of the present invention IP and/or oral was examined. At the time of sacrifice samples of liver, pancreas, heart, lung, spleen and kidney were removed, visually inspected, and immersion fixed in Bouin's solution for a minimum of 48 hours. All organs were then sectioned and examined for evidence of necrosis, inflammation, hemorrhage, and possible tumors. The major veins in each tissue were also examined for distention, especially in the liver and pancreas, and any other abnormalities are compared to known histopathological states. In addition to the above, the heart was examined for evidence of fibrosis in the muscular walls, and to compare the thickness of the ventricular walls. The pancreas was examined mainly for calcium deposits, while the lung was checked for signs of any exudates or hemorrhage, especially in the alveolar spaces. Finally, the kidney was examined mainly for microscopic hemorrhages, tubular necrosis or alterations in the glomeruli in the cortex.
# In this example, the effects of RC-MC-30 were compared with those of lonidamine in sexually mature rats. As discussed above, each of the rats (8 total) received a single injection and were sacrificed five days after injection and examined.
# [1] = tested on: Salmonella Typhimurium TA 100; experiment: Ames test for mutagenicity (plate assay, colony count); settings: 48 hours at 37° C.; for Ames test (+)S9 0.1 mg/pl. / Ames test (+)S9 1 mg/pl. / Ames test (+)S9 10 mg/pl.: (+)S9 mix; for Ames test (−)S9 0.1 mg/pl. / Ames test (−)S9 1 mg/pl. / Ames test (−)S9 10 mg/pl.: (−)S9 mix
# Male Long Evans rats = experiment: In vivo antispermatogenic testing in Long Evans rats; settings: for Mortality (25 mg/kg) / Response 25 mg/kg: 25 mg/kg single i.p. injection; for Response 25 mg/kg / Response 200 mg/kg: animals responding out of animals surviving, five days following injection; for Mortality (200 mg/kg) / Response 200 mg/kg: 200 mg/kg single i.p. injection
# S. typhimurium TA100 = experiment: Colormetric Ames Test Procedure; type: cell-based; settings: at the concentration given per compound (1.39-360.1 μM), 5 days at 37° C.
# Procedure: The following procedures were performed aseptically. First, the day before the assay, as late as possible in the day, the vial labeled “G” Nutrient Broth was dispensed into the vial labeled S. typhimurium TA100 (lyophilized). The mixture was incubated over night at 37° C. for about 16-18 hours.
# In appropriate vial, about 50 mg of the test compound was weighed out. About 1 mL of DMSO was added, and the mixture was filter sterilized with 25 mm syringe filter into a sterile tube. The concentration of DMSO was noted.
# In a sterile 50 mL tube, about 15 mL of sterile Davis Mingioli Salt (see Davis & Mingioli, Aromatic biosynthesis, VII. Accumulation of two derivatives of shikimic acid by bacterial mutants, J. Bacteriol. 1953. August; 66(2): 129-36) was pipetted. This salt solution (Muta Component “A”) was comprised of (1) Milli-Q, 600 mL; (2) dipotassium phosphate, anhyd., 38.5 g; (3) monopotassium phosphate, anhyd. 11.0 g; (4) ammonium sulfate, 5.5 g; (5) trisodium citrate, 1.375 g; and (6) magnesium sulfate, 0.55 g. Appropriate volume of Milli-Q water was added to bring total volume to 1 L. Each component was dissolved one at a time in the above order. The solution was filtered through a 0.22 μm filter to remove sediment at a pH of about 7.3.
# To the salt solution, small amounts of DMSO diluted compound was added, not to exceed 500 μl of DMSO. For example, about 100 μl aliquots of the DMSO diluted compound was added until the highest concentration is reached with compound still in solution. […] When the highest concentration of compound was determined, an appropriate volume of sterile Davis Mingioli salts was added to bring the total volume of solution to 17.5 mL. The concentration of compound and DMSO in the test solution was then noted.
# The components were then mixed in a 50 mL sterile tube labeled Reaction Mixture as follows: 21.62 mL of A+4.75 ml of B (D-glucose, 40% w/v)+2.38 mL of C (bromocresol purple, 5 mg/ml)+1.19 ml of D (D-biotin, 0.1 mg/ml)+0.060 ml (60 μl) of E (L-histidine, 0.1 mg/ml). The vial was vortexed and then set aside.
# The S9 Mixture was prepared by reconstituting the S9 enzymes with 2.1 mL of sterile water. This was labeled “S9F.” In a 50 mL tube labeled S9 Mixture, the following were mixed together (all available from EBIP): 0.4 mL of S9A (MgCl2, 0.4 M and KCl, 1.65 M)+0.09 mL of S9B (glucose-6-phosphate, 1.0 M)+0.81 mL of S9C (nicotine amide di-nucleotide phosphate, 0.1 M)+9.98 mL of S9D (phosphate buffer, pH 7.4)+6.72 mL of S9E (sterile distilled water)+2 mL of S9F (Rate liver extract). The vial was vortexed and then set aside.
# Sterile tubes were labeled as follows: Blank, Background I, Background II, Standard Mutagen, Compound 1 (−), Compound 1 (S9+), Compound 2 (−), Compound 2 (S9+), Compound 3 (−), Compound 3 (S9+). Next, about 2.5 mL of the reaction mix was added to each tube. Then, about 2 mL of the S9 mix was added to the Background II and the S9+ compounds. Next, to each of the compound vials, about 8 mL of the prepared compounds was added. The concentration of the compound in the final solution was noted. Then, about 100 μl of the standard mutagen was added to the Standard mutagen vial. (NaN3 for non S9 activation and 2-aminoanthracene with S9 activation). The appropriate volume of sterile water was next added for a final volume of 17.5 mL. Then, about 5 μl of bacteria was added to each tube except the Blank. Each vial was vortexed and poured into a sterile multi-channel pipette boat, and pipette 200 μl per well into the 96 well plate with a multi channel pipetter. The plates were labeled, covered, placed in zip lock bag, and then incubated for 5 days at 37° C.
# On day five of the incubation, the plates were removed from the incubator and placed in a laminar flow hood. The Blank was analyzed first. If there were any wells that were yellow, the test was considered contaminated and the results invalid. […]
SMILES,"Toxicology: liver, lung, pancreas, spleen, heart and kidney (histology) (rats; 25 mg/kg)","Toxicology: liver, lung, pancreas, spleen, heart and kidney (histology) (rats; 200 mg/kg)",Ames test (+)S9 0.1 mg/pl. [1],Ames test (+)S9 1 mg/pl. [1],Ames test (+)S9 10 mg/pl. [1],Ames test (−)S9 0.1 mg/pl. [1],Ames test (−)S9 1 mg/pl. [1],Ames test (−)S9 10 mg/pl. [1],Mortality (25 mg/kg) (Male Long Evans rats),Response 25 mg/kg (Male Long Evans rats),Mortality (200 mg/kg) (Male Long Evans rats),Response 200 mg/kg (Male Long Evans rats),"Colormetric Ames test, with S9 (S. typhimurium TA100)","Colormetric Ames test, without S9 (S. typhimurium TA100)",further results
"O=C(O)/C=C/c1nn(Cc2ccc(Cl)cc2Cl)c2cc(F)ccc12 [JWS-1-170, 3-[1-(2,4-dichlorobenzyl)-6-fluoro-1H-indazol-3-yl]-acrylic acid]","liver, lung, pancreas, spleen, heart and kidney that appeared within normal limits","liver, lung, pancreas, spleen, heart and kidney all appeared within normal limits; also recorded: The liver did have moderate patches (5-10 cells in diameter) of necrosis mainly in the periportal areas",Pass,Pass,Pass,Pass,Pass,Pass,0/5,3/5,0/5,3/3,–,–,–
"COC(=O)c1nn(Cc2ccc(Cl)cc2Cl)c2cccc(C)c12 [JWS-2-92, 1-(2,4-dichlorobenzyl)-4-methyl-1H-indazole-3-carboxylic acid methyl ester]",–,–,–,–,–,–,–,–,–,–,–,–,Pass*,Pass*,–
"COC(=O)c1nn(Cc2ccc(Cl)cc2Cl)c2cc(OC(F)(F)F)ccc12 [JWS-2-100, 1-(2,4-dichlorobenzyl)-6-trifluoromethoxy-1H-indazole-3-carboxylic acid methyl ester]",–,–,–,–,–,–,–,–,–,–,–,–,Pass*,Pass*,–
"O=C(O)c1nn(Cc2ccc(Cl)cc2Cl)c2cc(OC(F)(F)F)ccc12 [JWS-2-102, 1-(2,4-dichlorobenzyl)-6-trifluoromethoxy-1H-indazole-3-carboxylic acid]",–,–,–,–,–,–,–,–,–,–,–,–,Pass*,Pass*,–
"COC(=O)c1nn(Cc2ccc(Cl)cc2Cl)c2ccccc12 [RC-MC-30, 1-(2,4-dichlorobenzyl)indazole-3-carboxylic acid methyl ester]",–,–,Pass,Pass,Pass,Pass,Pass,Pass,0/5,3/5,0/5,4/5,–,–,"Kidney (histology) (rats; Dosage 25 mg/kg): Small areas with blood; Liver and Pancreas (histology) (rats; Dosage 25 mg/kg): Non-remarkable,; Kidney (histology) (rats; Dosage 200 mg/kg): Patchy hemorrhagic areas,; Liver and Pancreas (histology) (rats; Dosage 200 mg/kg): Non-remarkable,"
"O=C(O)c1nn(Cc2ccc(Cl)cc2Cl)c2cc(C(F)(F)F)ccc12 [RC-MC-100, 1-(2,4-dichlorobenzyl)-6-trifluoromethyl-1H-indazole-3-carboxylic acid]",–,–,Pass,Pass,Pass,Pass,Pass,Pass,0/5,0/5,0/5,0/5,–,–,"Clinical signs after IP injection (rats; 200 mg/kg IP, five animals): all 5 animals tested became lethargic and ceased moving; also recorded: minor tremors in both hindlimbs which lasted approximately 30 minutes; also recorded: Two of the animals also had wet rales; Deaths after IP injection (rats; 200 mg/kg IP, five animals): Three of the animals died 2-3 hours later; Recovery after IP injection (rats; 200 mg/kg IP, five animals): the other two recovered and did not show any other symptoms"
"CCOC(=O)c1nn(Cc2ccc(Cl)cc2Cl)c2ccccc12 [RC-MC-156, 1-[(2,4-dichlorobenzyl)-1H-indazole]-3-carboxylic acid ethyl ester]","The lung did have scattered small, hemorrhagic patches, mainly in the alveolar and terminal bronchiole regions; also recorded: The lung showed widespread hemorrhagic regions throughout the alveoli and terminal bronchioles with small hemosiderin deposits around a few smaller bronchioles","liver, lung, pancreas, spleen, heart and kidney all appeared within normal limits; also recorded: The lung had small, scattered areas of hemorrhage mainly around the alveoli and small bronchioles; also recorded: The liver had small (4-5 cells in diameter) patches of necrosis scattered throughout the parenchyma",Pass,Pass,Pass,Pass,Pass,Pass,0/5,2/5,0/5,4/5,–,–,–
"CCCOC(=O)c1nn(Cc2ccc(Cl)cc2Cl)c2ccccc12 [RC-MC-158, 1-[(2,4-dichlorobenzyl)-1H-indazole]-3-carboxylic acid propyl ester]","liver, lung, pancreas, spleen, heart and kidney all appeared within normal limits; also recorded: The lung did have small scattered hemorrhagic areas, mainly around the alveoli and terminal bronchioles","The lung had multiple, large hemorrhagic areas, mainly in the alveolar regions with some hemosiderin deposits; also recorded: The lung contained multiple large hemorrhagic areas, mainly in the alveoli; also recorded: The liver contained small, scattered necrotic areas, generally around the portal veins",Mar-,Pass,Pass,Pass,Pass,Pass,0/5,2/5,0/5,5/5,–,–,–
